Values after ≈ are worked out from the molar mass of the structure shown.
System: ΔtreS (TreS-deficient M. tuberculosis)
Type: cell-based, Mycobacterium tuberculosis

Row | Structure (SMILES) | IC95 ΔtreS [µg/mL]
1 | COc1nc2ccc(Br)cc2cc1[C@@H](c1ccccc1)[C@@](O)(CCN(C)C)c1cccc2ccccc12 [BDQ, bedaquiline] | 0.21 (≈ 0.378 µM)
2 | NNC(=O)c1ccncc1 [INH, isoniazid] | 0.12 (≈ 0.875 µM)
